Measured values: the kinase profiling compilation of Christmann-Franck et al. (2016)

Key:
Test in all cases: KINOMEscan competition binding
Settings in all cases: compound 10.0 µM
DAPK2 (human) = DAPK2 (human) (UniProt Q9UIK4)
RPS6KA2 KD2 (human) = RPS6KA2 KD2 (human) (UniProt Q15349)
FER (human) = FER (human) (UniProt P16591)
DCLK1 (human) = DCLK1 (human) (UniProt O15075)
DAPK3 (human) = DAPK3 (human) (UniProt O43293)
EGFR (human) = EGFR (human) (UniProt P00533)
[1] = system: EGFR (human), P00533 [752-759 del]
RPS6KA1 KD2 (human) = RPS6KA1 KD2 (human) (UniProt Q15418)
PLK1 (human) = PLK1 (human) (UniProt P53350)
PLK4 (human) = PLK4 (human) (UniProt O00444)
Chain of PLK4 (human) (O00444 whole entry, looked up): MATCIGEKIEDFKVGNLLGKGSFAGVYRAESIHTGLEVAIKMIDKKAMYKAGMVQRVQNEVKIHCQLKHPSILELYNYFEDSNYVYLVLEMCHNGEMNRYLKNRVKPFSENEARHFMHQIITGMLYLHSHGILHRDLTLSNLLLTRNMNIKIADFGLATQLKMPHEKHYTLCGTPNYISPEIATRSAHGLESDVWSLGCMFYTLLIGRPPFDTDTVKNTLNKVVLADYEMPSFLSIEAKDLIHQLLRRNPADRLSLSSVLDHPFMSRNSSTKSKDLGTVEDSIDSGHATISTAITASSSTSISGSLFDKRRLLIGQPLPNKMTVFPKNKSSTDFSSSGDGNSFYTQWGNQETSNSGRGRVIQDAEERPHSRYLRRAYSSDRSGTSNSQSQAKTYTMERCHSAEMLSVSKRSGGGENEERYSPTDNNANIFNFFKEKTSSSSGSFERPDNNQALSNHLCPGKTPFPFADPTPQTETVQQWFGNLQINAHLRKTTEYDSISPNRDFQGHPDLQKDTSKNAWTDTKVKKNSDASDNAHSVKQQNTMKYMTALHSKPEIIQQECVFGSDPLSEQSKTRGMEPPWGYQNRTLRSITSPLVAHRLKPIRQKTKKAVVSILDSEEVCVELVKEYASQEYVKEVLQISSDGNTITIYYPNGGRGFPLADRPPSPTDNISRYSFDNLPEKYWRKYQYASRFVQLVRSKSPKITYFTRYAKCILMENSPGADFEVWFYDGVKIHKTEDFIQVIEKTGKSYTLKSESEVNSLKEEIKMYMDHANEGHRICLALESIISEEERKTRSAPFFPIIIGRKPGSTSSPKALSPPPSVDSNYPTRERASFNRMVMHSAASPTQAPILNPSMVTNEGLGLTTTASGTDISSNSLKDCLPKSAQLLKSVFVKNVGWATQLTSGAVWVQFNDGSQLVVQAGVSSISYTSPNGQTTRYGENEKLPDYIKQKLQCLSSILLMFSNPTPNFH

[2] = system: EGFR (human), P00533 [G719S]
PLK3 (human) = PLK3 (human) (UniProt Q9H4B4)
TTK (human) = TTK (human) (UniProt P33981)
GAK (human) = GAK (human) (UniProt O14976)
Chain of GAK (human) (O14976 whole entry, looked up): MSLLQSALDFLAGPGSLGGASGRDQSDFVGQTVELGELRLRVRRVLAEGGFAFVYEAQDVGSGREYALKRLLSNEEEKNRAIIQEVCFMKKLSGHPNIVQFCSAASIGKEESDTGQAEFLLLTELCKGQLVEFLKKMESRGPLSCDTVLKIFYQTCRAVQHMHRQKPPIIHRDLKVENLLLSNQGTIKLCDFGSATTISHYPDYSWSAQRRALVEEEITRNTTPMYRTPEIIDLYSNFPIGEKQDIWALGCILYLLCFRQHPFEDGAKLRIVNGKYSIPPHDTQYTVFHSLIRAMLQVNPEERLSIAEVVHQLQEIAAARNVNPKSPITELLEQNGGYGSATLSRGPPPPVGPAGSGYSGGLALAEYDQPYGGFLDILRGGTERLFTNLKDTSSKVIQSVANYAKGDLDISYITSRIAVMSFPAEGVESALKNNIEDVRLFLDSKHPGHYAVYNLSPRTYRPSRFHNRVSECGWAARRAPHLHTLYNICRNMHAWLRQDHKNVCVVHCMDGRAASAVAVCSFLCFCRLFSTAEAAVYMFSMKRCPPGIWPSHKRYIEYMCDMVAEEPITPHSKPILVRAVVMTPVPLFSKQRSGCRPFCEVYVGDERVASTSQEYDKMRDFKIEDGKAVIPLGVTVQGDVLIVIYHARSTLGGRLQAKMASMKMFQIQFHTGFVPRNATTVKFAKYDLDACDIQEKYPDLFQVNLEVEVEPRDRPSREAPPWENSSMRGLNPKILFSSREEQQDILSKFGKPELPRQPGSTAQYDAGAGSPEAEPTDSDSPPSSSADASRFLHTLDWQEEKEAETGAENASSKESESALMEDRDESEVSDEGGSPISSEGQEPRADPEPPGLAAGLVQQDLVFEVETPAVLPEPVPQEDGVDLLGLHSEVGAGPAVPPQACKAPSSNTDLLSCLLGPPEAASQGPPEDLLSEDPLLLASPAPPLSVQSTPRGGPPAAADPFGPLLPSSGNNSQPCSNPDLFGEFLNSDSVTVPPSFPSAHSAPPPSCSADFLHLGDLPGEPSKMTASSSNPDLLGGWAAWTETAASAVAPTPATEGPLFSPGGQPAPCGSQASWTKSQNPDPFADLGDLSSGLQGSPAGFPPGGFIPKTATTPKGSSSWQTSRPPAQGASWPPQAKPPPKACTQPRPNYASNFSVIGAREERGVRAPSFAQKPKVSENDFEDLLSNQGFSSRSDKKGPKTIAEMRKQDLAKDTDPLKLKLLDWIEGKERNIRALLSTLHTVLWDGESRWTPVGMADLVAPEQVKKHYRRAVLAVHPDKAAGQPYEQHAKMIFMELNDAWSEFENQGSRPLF

ULK2 (human) = ULK2 (human) (UniProt Q8IYT8)
[3] = system: EGFR (human), P00533 [G719C; 746-750 del]
DCLK2 (human) = DCLK2 (human) (UniProt Q8N568)
Chain of DCLK2 (human) (Q8N568 whole entry, looked up): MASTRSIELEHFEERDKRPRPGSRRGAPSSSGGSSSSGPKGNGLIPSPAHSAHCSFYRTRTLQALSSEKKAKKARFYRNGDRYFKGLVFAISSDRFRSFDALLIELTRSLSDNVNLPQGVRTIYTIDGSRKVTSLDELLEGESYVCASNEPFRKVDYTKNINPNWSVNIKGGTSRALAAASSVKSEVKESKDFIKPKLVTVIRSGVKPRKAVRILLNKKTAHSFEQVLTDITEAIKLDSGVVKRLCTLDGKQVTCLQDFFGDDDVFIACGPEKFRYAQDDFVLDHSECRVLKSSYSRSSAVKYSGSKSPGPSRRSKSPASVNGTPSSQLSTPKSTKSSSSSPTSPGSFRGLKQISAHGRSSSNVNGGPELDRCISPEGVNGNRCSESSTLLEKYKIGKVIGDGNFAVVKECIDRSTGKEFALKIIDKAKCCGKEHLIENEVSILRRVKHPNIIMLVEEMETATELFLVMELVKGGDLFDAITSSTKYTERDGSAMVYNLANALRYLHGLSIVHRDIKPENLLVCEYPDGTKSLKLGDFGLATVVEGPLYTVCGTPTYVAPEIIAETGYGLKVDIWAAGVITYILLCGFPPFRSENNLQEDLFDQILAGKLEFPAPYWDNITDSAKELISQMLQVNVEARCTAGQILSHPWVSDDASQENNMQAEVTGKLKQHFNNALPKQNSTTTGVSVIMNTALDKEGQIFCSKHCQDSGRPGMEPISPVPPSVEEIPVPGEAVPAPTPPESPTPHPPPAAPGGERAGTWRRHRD

TNK1 (human) = TNK1 (human) (UniProt Q13470)
PRKD1 (human) = PRKD1 (human) (UniProt Q15139)
PTK2 (human) = PTK2 (human) (UniProt Q05397)
STK33 (human) = STK33 (human) (UniProt Q9BYT3)
PTK2B (human) = PTK2B (human) (UniProt Q14289)
[4] = system: EGFR (human), P00533 [747-751 del / S ins]
ROS1 (human) = ROS1 (human) (UniProt P08922)
INSR (human) = INSR (human) (UniProt P06213)
AKT3 (human) = AKT3 (human) (UniProt Q9Y243)
ALK (human) = ALK (human) (UniProt Q9UM73)
Chain of ALK (human) (Q9UM73 whole entry, looked up): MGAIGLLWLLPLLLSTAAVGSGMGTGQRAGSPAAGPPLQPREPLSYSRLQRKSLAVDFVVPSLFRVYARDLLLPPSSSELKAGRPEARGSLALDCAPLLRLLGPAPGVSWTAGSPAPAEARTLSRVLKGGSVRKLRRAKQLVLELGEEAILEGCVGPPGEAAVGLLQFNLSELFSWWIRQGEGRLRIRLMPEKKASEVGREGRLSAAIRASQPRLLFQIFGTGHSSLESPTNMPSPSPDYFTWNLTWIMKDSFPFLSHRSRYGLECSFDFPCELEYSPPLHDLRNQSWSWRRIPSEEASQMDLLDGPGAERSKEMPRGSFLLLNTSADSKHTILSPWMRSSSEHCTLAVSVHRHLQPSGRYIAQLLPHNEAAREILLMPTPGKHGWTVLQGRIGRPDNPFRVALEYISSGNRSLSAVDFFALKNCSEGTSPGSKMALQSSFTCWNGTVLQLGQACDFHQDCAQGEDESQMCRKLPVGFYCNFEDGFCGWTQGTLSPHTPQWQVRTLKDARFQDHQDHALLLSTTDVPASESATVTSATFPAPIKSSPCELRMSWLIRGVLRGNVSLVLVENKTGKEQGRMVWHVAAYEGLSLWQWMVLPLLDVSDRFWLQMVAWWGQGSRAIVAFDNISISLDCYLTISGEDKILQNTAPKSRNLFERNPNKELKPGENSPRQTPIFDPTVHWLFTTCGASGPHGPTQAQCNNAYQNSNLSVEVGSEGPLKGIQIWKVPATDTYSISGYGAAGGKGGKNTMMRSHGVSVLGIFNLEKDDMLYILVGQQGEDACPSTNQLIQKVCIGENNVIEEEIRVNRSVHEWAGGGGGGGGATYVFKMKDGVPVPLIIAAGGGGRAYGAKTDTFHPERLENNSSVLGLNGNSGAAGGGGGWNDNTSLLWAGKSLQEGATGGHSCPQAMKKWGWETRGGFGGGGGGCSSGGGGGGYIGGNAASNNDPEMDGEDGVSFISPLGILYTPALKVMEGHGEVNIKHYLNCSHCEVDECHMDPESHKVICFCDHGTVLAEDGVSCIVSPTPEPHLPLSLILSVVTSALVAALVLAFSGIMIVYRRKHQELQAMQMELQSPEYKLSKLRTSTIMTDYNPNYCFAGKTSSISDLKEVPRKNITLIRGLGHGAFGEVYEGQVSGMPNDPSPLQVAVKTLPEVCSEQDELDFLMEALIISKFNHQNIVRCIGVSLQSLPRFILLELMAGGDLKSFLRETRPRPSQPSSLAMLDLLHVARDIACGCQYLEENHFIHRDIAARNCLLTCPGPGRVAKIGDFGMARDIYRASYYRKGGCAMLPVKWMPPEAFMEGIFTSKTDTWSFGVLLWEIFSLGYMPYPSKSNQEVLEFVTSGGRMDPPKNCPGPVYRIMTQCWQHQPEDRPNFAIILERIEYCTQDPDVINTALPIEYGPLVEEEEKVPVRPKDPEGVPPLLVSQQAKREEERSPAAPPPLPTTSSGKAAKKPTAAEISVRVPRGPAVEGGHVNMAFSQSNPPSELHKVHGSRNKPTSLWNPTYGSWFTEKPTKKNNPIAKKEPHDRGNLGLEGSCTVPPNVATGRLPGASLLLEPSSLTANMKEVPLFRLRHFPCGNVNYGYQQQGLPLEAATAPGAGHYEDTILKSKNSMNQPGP

[5] = system: EGFR (human), P00533 [P753S; 747-752 del]
[6] = system: EGFR (human), P00533 [A750P; 747-749 del]
CSNK1E (human) = CSNK1E (human) (UniProt P49674)
MYLK (human) = MYLK (human) (UniProt Q15746)
STK4 (human) = STK4 (human) (UniProt Q13043)
DMPK (human) = DMPK (human) (UniProt Q09013)
RPS6KA6 KD2 (human) = RPS6KA6 KD2 (human) (UniProt Q9UK32)
INSRR (human) = INSRR (human) (UniProt P14616)
[7] = system: EGFR (human), P00533 [L858R]

Chain of DAPK2 (human) (Q9UIK4 whole entry, looked up): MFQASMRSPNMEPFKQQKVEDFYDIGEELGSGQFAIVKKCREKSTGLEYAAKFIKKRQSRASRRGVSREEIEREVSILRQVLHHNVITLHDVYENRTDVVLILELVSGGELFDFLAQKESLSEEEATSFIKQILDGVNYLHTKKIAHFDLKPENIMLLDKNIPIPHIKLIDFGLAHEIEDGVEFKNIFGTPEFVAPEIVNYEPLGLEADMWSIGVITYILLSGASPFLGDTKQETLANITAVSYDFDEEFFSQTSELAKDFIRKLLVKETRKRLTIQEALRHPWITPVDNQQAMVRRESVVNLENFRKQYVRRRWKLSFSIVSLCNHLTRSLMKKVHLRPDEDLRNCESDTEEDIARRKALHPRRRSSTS

- kinase still bound, per cent of control (DAPK2 (human)): 32%
- kinase still bound, per cent of control (RPS6KA2 KD2 (human)): 16%
- kinase still bound, per cent of control (FER (human)): 24%
- kinase still bound, per cent of control (DCLK1 (human)): 4.2%
- kinase still bound, per cent of control (DAPK3 (human)): 28%
- kinase still bound, per cent of control (EGFR (human)): 29%
- kinase still bound, per cent of control [1]: 23%
- kinase still bound, per cent of control (RPS6KA1 KD2 (human)): 32%
- kinase still bound, per cent of control (PLK1 (human)): 0%
- kinase still bound, per cent of control (PLK4 (human)): 9.4%
- kinase still bound, per cent of control [2]: 31%
- kinase still bound, per cent of control (PLK3 (human)): 12%
- kinase still bound, per cent of control (TTK (human)): 1.8%
- kinase still bound, per cent of control (GAK (human)): 1.4%
- kinase still bound, per cent of control (ULK2 (human)): 2%
- kinase still bound, per cent of control [3]: 28%
- kinase still bound, per cent of control (DCLK2 (human)): 14%
- kinase still bound, per cent of control (TNK1 (human)): 20%
- kinase still bound, per cent of control (PRKD1 (human)): 29%
- kinase still bound, per cent of control (PTK2 (human)): 3.4%
- kinase still bound, per cent of control (STK33 (human)): 7.2%
- kinase still bound, per cent of control (PTK2B (human)): 13%
- kinase still bound, per cent of control [4]: 20%
- kinase still bound, per cent of control (ROS1 (human)): 0%
- kinase still bound, per cent of control (INSR (human)): 30%
- kinase still bound, per cent of control (AKT3 (human)): 0%
- kinase still bound, per cent of control (ALK (human)): 11%
- kinase still bound, per cent of control [5]: 24%
- kinase still bound, per cent of control [6]: 18%
- kinase still bound, per cent of control (CSNK1E (human)): 0%
- kinase still bound, per cent of control (MYLK (human)): 14%
- kinase still bound, per cent of control (STK4 (human)): 0%
- kinase still bound, per cent of control (DMPK (human)): 0%
- kinase still bound, per cent of control (RPS6KA6 KD2 (human)): 20%
- kinase still bound, per cent of control (INSRR (human)): 32%
- kinase still bound, per cent of control [7]: 31%
SMILES: COc1cc(N2CCN(CCO)CC2)ccc1Nc1ncc2c(n1)N(C1CCCC1)CCC(=O)N2C
